pEC50, pKd: −log10 of the molar value. Where two headings read alike, the source gives them in different places.
How the values were obtained:
[1] = target: T1, β-adrenergic receptors (Rattus norvegicus, UniProt P18090); assay: Equilibrium saturation binding of (125I)-iodohydroxybenzylpindolol in treated and washed C6 glioma cells
T1 construct: β-adrenergic receptors in intact living cells; endogenous in cells; host or cells: C6 rat glioma cells, 2B subclone
From the text: All washing experiments involving glioma cells utilized this salt solution as the wash medium.
It would be predicted that the occupation of a receptor by a specific ligand should be considered as an effective loss of that receptor provided that the ligand dissociates sufficiently slowly or not at all. […] For all data points, n=3.

[2] = target: T1, β-adrenergic receptors; assay: Displacement of specific (125I)-iodohydroxybenzylpindolol binding, acute or after washing, in intact C6 rat glioma cells
Experimental: For the study involving glioma cells, C6 rat glioma cells, 2B subclone were grown in monolayer cultures by the technique described by Terasaki et al, J. Biol. Chem., 253, 5418-5425 in 16 mm plastic cluster dishes. In all experiments, the cells were changed from Ham's F-10 containing 10% fetal bovine serum growth medium to a simple salt medium containing 130 mM NaCl, 4 mM KCl, 0.6 mM MgSO4, 0.3 mM CaCl2, 5 mM sodium phosphate buffer (pH 7.4). All washing experiments involving glioma cells utilized this salt solution as the wash medium.
In other test plates, the cells were pretreated with aminobenzylpropranolol blocking agent and then washed repeatedly over a period of 3 hours at 37° C. before determination of [^125 I]-iodohydroxybenzylpindolol binding. For all points, n=3, which means that each data point is an average of three separate determinations. […] (This value was corrected for competition by (^125 I)-iodohydroxybenzylpindolol).

[3] = system: intracellular cyclic AMP in isoproterenol-treated glioma cells (β-adrenergic receptors); assay: Isoproterenol-stimulated intracellular cyclic AMP accumulation in pretreated, washed C6 glioma cells; format: cell-based, rat; details: for increase of apparent activation constant for isoproterenol: 40 minutes, then washed 3 hours at 37° C.
Experimental: The ability of the present β-adrenergic receptor blocking compound to function as an effective β-adrenergic blocking agent for the selective elimination of cellular β-adrenergic receptors is apparent from the following study on the interaction of aminobenzylpropranolol with glioma cells and mammalian atrium cells. For the study involving glioma cells, C6 rat glioma cells, 2B subclone were grown in monolayer cultures by the technique described by Terasaki et al, J. Biol. Chem., 253, 5418-5425 in 16 mm plastic cluster dishes. In all experiments, the cells were changed from Ham's F-10 containing 10% fetal bovine serum growth medium to a simple salt medium containing 130 mM NaCl, 4 mM KCl, 0.6 mM MgSO4, 0.3 mM CaCl2, 5 mM sodium phosphate buffer (pH 7.4). All washing experiments involving glioma cells utilized this salt solution as the wash medium. In experiments involving the glioma cells, specific (propranolol-displaceable) binding of (^125 I)-iodohydroxybenzylpindolol to C6 rat glioma cells was performed by the method developed by Terasaki et al (see above reference) with the exception that in all solutions phentolamine was omitted, and at the termination of the radioligand binding reaction, 0.1 mM (±)-propranololwas included in the cell wash solution.
In the study glioma cells were treated for 40 minutes with zero, 0.1 μM (Δ) or 1 μM aminobenzylpropranolol and then washed with salt solution for 3 hours at 37° C. After washing, the cells were treated for 20 minutes with ((-)-isoproterenol) and extracted with HCl to determine the amount of cyclic AMP. For all data points, n=3.

[4] = system: rat atria (β-adrenergic receptors); assay: Isoproterenol-increased tension development in isolated rat atria; format: cell-based; details: for pEC50: Rattus norvegicus, control rat atria, read-out: apparent KAct of isoproterenol
Experimental: (§1) For the tests atrial preparations were obtained by excising hearts from 200-250 g male Wistar rats or 300-400 g male Hartley guinea pigs. All of the animals were pretreated with reserpine (5 mg/kg) administered interperitoneally 15-18 hours before the animals were killed by a blow to the back of the neck. Left atria were maintained at 30° C. […] The buffer was vigorously bubbled with 95% O2 -5% CO2. Atria hooked to platinum-iridium electrodes were stimulated at 1 second intervals with 10 msec monophasic pulses at twice the threshold voltage for contractions. Developed tension was recorded on Beckman oscillographic recorders (Dynographs) and the signals processed by a DEC LSI-11 microcomputer. […] The inhibition is time and dose dependent. […] The cumulative dose response curves to (-)-isoproterenol were determined (n=2-3). At the termination of each experiment, maximum tension was determined by exposing atria to 100 μM isobutylmethylxanthine.

[5] = system: guinea pig atria (β-adrenergic receptors); assay: Isoproterenol-increased tension development in isolated guinea pig atria; format: cell-based; details: for shift in cumulative isoproterenol dose response curve: guinea pig atria
Experimental: as §1

[6] = system: guinea pig atria; assay: Positive inotropic response of isolated guinea pig atria to histamine; format: cell-based; details: guinea pig atria pretreated with aminobenzylpropranolol
Experimental: Experiments were also conducted to determine the extent of aminobenzylpropranolol antagonism to isoproterenol-stimulated contractility in isolated atria. For the tests atrial preparations were obtained by excising hearts from 200-250 g male Wistar rats or 300-400 g male Hartley guinea pigs. All of the animals were pretreated with reserpine (5 mg/kg) administered interperitoneally 15-18 hours before the animals were killed by a blow to the back of the neck. Left atria were maintained at 30° C. (pH 7.4) in buffer containing: 118 mM NaCl, 4.75 mM KCl, 1.2 mM KH2 PO4, 1.2 mM MgSO4, 5.5 mM dextrose, 25 mM NaHCO3, and 1 mM CaCl2. The buffer was vigorously bubbled with 95% O2 -5% CO2. Atria hooked to platinum-iridium electrodes were stimulated at 1 second intervals with 10 msec monophasic pulses at twice the threshold voltage for contractions. Developed tension was recorded on Beckman oscillographic recorders (Dynographs) and the signals processed by a DEC LSI-11 microcomputer.
FIG. 4 contains the cumulative dose response curves to histamine treated atria (n=2-3).

[7] = system: isolated atria (β-adrenergic receptors); assay: Contractility of isolated atria, species not distinguished; format: cell-based, rat or guinea pig
Experimental: as §1, with “isobutylmethylxanthine. […] The degree of inhibition was similar to that observed in glioma cells. […] (2) Efficacy was also assessed by using the phosphodiesterase inhibitor, isobutylmethylxanthine, which is able to elicit a maximal response by itself.” for “isobutylmethylxanthine.”

[8] = system: β-adrenergic receptors of guinea pig taenia; details: receptors photolyzed with isoproterenol or 2-(2-hydroxy-3-isopropylaminopropoxy) iodobenzene; cited from earlier work
[9] = system: cat papillary muscle (β-adrenergic receptors); details: cited from earlier work
[10] = 1 μM for 50 minutes prior to washing
[11] = blocked by N-[2-hydroxy-3-(1-naphthoxy)-propyl]-N-bromoacetylethylenediamine

T1 sequence (P18090 whole entry): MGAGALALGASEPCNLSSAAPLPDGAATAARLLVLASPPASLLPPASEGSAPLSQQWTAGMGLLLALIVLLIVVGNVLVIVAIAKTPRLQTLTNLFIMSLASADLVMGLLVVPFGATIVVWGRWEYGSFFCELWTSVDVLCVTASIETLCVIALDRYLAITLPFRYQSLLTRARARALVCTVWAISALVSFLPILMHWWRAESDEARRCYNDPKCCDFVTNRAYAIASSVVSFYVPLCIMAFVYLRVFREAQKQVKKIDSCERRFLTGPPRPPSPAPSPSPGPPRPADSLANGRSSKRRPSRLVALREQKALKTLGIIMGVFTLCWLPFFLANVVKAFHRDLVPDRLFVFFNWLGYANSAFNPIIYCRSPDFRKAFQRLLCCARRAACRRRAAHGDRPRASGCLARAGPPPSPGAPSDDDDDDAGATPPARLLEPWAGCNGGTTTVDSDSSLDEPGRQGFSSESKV

`CC(C)(Cc1ccc(O)c(I)c1)NCC(O)COc1cccc2[nH]ccc12` (stereo not shown) [(^125 I)-iodohydroxybenzylpindolol, reference compound] gave a pKd ([1]; glioma cells, not different between treated and control, read-out: equilibrium dissociation constant (KD) for (125I)-iodohydroxybenzylpindolol) of 10.22.

In the case of `CC(C)(Cc1ccc(N)cc1)NCC(O)COc1cccc2ccccc12` (stereo not drawn) [aminobenzylpropranolol, 1-(p-amino-α,α-dimethylphenethylamino)-3-(1-naphthoxy)-2-propanol], the pKd ([2]; 40 min at 37° C., corrected for competition by (125I)-iodohydroxybenzylpindolol, read-out: apparent KD in blocking one-half of the β-receptors) was 8.10, the “antagonist potency, displacing (125I)-iodohydroxybenzylpindolol from β-adrenergic receptors” value ([2]; intact living glioma cells) was “relatively potent β-adrenergic antagonist” and the “ability to block β-adrenergic receptors assayed acutely (vs after washing)” value ([2]; washed repeatedly over 3 hours at 37° C.) was “no significant difference”. For the same molecule, the “effect on affinity of the remaining receptors for (125I)-iodohydroxybenzylpindolol” value ([1]; 80 nM, 40 minutes (37° C.), washed for 3 hours) was “not accomplished by a change in the affinity”, the inhibition at 0.08 µM ([1]; 40 min, 80 nM, 40 minutes (37° C.), washed for 3 hours, read-out: maximum binding capacity diminished) was 70% and the “maximum receptor binding (FIG. 2)” value ([1]; treated then washed with salt solution) was “marked reduction”. The “maximal attainable level of intracellular cyclic AMP” value ([3]; 0.1 μM and 1 μM) was “no change”, the “increase of apparent activation constant for isoproterenol” value ([3]; 0.1 μM) was 0.4 log units and the “increase of apparent activation constant for isoproterenol” value ([3]; 1 μM) was 1.1 log units. The “increases in intracellular cyclic AMP in isoproterenol-treated glioma cells” value ([3]; only at submaximal concentrations of the catecholamine) was “inhibited”, the “shift in cumulative isoproterenol dose response curve” value ([4]; 0.1 μM for 1 hour, rat atria) was 0.5 log and the “fold increase in apparent KAct for isoproterenol” value (shortened to “fold increase in apparent KAct”) ([4]; 1 μM for 5 minutes prior to washing) was 1.2 fold. The “fold increase in apparent KAct” value ([4]; 1 μM for 20 minutes prior to washing) was 5.2 fold, the “fold increase in apparent KAct” value [4, 10] was 13.5 fold and the “increase in apparent KAct for isoproterenol” value [4, 10] was 1.1 log units. The “rightward shift of isoproterenol dose response curves” value ([4]; 3 μM for 1 hour, washed 17 hours, 30° C.) was 1.5 log units, the “decrease in inhibition of the isoproterenol response on extended washing” value ([4]; 3 μM for 1 hour, washed 17 hours, vs parallel washed control tissues) was “no detectable decrease” and the “shift in cumulative isoproterenol dose response curve” value ([4]; 10 μM for 1 hour, rat atria) was 2 log. For the same molecule, the “onset of the inhibitory action” value ([4]; rat atria) was “slow”, the isoproterenol-increased tension development ([4]; time and dose dependent) was “inhibits” and the “shift in cumulative isoproterenol dose response curve” value ([5]; 0.1 μM for 1 hour) was 0.5 log. For the same molecule, the “shift in cumulative isoproterenol dose response curve” value ([5]; 10 μM for 1 hour) was 2 log, the isoproterenol-increased tension development ([5]; time and dose dependent) was “inhibits” and the “positive inotropic response to histamine” value [6] was “unaltered”. For the same molecule, the “sensitivity to isoproterenol of treated atria” value ([7]; 0.1 μM or 10 μM pretreatment, washed five times) was “decreased sensitivity to isoproterenol”, the “inhibitory activity in medium transferred from treated, washed atrium to fresh atrium” value ([7]; after washing) was “no inhibitory activity” and the “efficacy (maximum response) of isoproterenol in treated atria” value ([7]; aminobenzylpropranolol-treated atria) was “unchanged”. The “reversal of blockage by high concentrations of isoproterenol” value ([7]; multiple washes and rechallenges) was “did not reverse the blockage” and the “maximal level of tension development” value ([7]; pretreated with 0.1 μM isoproterenol, washed, then 10 μM aminobenzylpropranolol) was “remained the same”.

For `CC(C)Cn1c(=O)n(C)c(=O)c2[nH]cnc21` [isobutylmethylxanthine, reference compound], the “increase in developed tension” value ([7]; 100 μM isobutylmethylxanthine added to atria treated with 10 μM isoproterenol) was “less than 5%”.

For `CC(C)NCC(O)c1ccc(O)c(O)c1` (stereo not shown) [isoproterenol, N-isopropylnoradrenaline, reference compound], the pEC50 ([4]; first dose response curve) was 9.05, the pEC50 ([4]; second dose response curve) was 8.33 and the “effect on tension in absence of inhibitor” value ([7]; 0.1 μM isoproterenol) was “maximally effective”. For the same molecule, the “desensitization on multiple exposures (decrease in potency for isoproterenol)” value ([7]; control atria, not pretreated with the inhibitor) was “small degree of desensitization”, the “maximal relaxation by isoproterenol in photolyzed tissue” value [8] was “maximal relaxation could still be elicited” and the “potency of isoproterenol in photolyzed tissue” value [8] was “potency was decreased”. For the same molecule, the “inotropic and cyclic AMP responses to isoproterenol after irreversible block” value [9, 11] was “maximal” and the “potency of isoproterenol after irreversible block” value [9, 11] was “decreased potency”.

For “N-[2-hydroxy-3-(1-naphthoxy)-propyl]-N-bromoacetylethylenediamine”, the block of receptors ([9]; cat papillary muscle) is given as “irreversibly blocked”.
